Experimental data as given in PMC8778187, “A New Oxygen Containing Pyclen-Type Ligand as a Manganese(II) Binder for MRI and ^52Mn PET Applications: Equilibrium, Kinetic, Relaxometric, Structural and Radiochemical Studies” (Molecules, 2022).

How the values were obtained:
[1] = 1H relaxometry: r1p and r2p relaxivity of Mn(II) complexes; type: physicochemical; settings: for r1p / r2p: Mn(II) complex, pH = 7.4
Method: The relaxivity of Mn(II) complexes is one of the most important parameters that directly correlates with its MRI efficacy. Relaxivity is defined as the longitudinal (r1p) and transverse (r2p) water proton relaxation rate enhancement, provided by 1.0 mM concentration of the paramagnetic species. The relaxivity (r1p and r2p) of the Mn(II) complexes were determined using relaxometers operating at 0.49 T and 1.41 T field strength, in a HEPES buffer (I = 0.15 M NaCl) at different temperatures from the slopes of plots 1/T1,2 vs. (Mn(II)) for 4 concentrations of Mn(II) (data shown in Supporting Information Figures S24 and S25), and they are compared in Table 4.
The ^1H longitudinal (T1) and transverse (T2) relaxation times were measured by using Bruker Minispec MQ-20 and MQ-60 NMR analyzers (Bruker corporation, Billerica, MA, USA). The temperature of the sample holder was set at 25.0 or 37 (±0.2) °C, and controlled with a circulating water bath thermostat. The T1 values of the samples were determined by means of the inversion recovery method (180°–τ–90°), averaging 4–6 data points obtained at 12 different τ delay times, while T2 data were collected by using the Carl–Purcell–Meiboom–Gill (CPMG) spin-echo pulse sequence. Relaxivities were determined by published procedures (from the slopes of the plots of 1/T1,2 vs. (Mn(II)) for 4 concentrations of Mn(II)), in samples of 0.3–0.4 mL volume (data shown in Figures S24 and S25, Supplementary Information). The pH were set by either using a 0.05 M 4-(2-hydroxyethyl)-1-piperazine-ethanesulfonic acid (HEPES) buffer (pH = 7.4) or monitored (pH profiles) using a Metrohm 827 pH lab pH meter and a Metrohm 6.0234.100 combined electrode, in the pH range of 1.75–11.8.

[2] = Metal exchange (transmetalation) with Zn(II) followed by T2 relaxometry; type: physicochemical
From the text: The kinetic inertness of the complexes considered for in vivo applications is an important parameter. It can be characterized by using various approaches. One of the possibilities is to study the rates of dissociation of the complexes, by following the transmetalation reactions occurring between the complex and the large excess (applied to ensure pseudo-first-order conditions) of a suitable exchanging metal ions (essential metal ions, such as Zn(II) or Cu(II) are often used for this purpose). The rates of dissociation reactions are explored as a function of pH (in a wide pH range) as well as in a wide metal ion concentration range, in order to obtain information about the contribution of various mechanisms (spontaneous, acid-, or metal-assisted dissociation). […] Results obtained for different complexes under the same conditions can be compared, and the order of relative inertness can be accessed rapidly. Finally, in the field of nuclear medicine, the “serum stability” is often determined, which, in fact, reflects dissociation in the blood serum (i.e., the dissociation initiated by the serum components). Upon the dissociation of the complex, the Mn(II) reacts with the serum components (HSA for instance), which results in a considerable relaxivity enhancement caused by the formation of Mn(II) species with a longer rotational correlation time (a remarkable increase in molecular mass). Therefore, ^1H relaxometry is an easily accessible tool for following the transmetalation/transchelation reactions of paramagnetic complexes occurring in blood serum.
Metal exchange reactions occurring with Zn(II) at pH = 6.0: first, we evaluated the rate of the metal exchange reaction occurring with Zn(II) under the conditions proposed by P. Caravan and coworkers, in order to have an idea of how the replacement of the secondary amine group for an etheric oxygen in the rim of the pyclen macrocycle affects the inertness of its corresponding Mn(II) complex. The plot of the 1/T2 values as a function of time for the [Mn(3,9-OPC2A)] and [Mn(3,9-PC2A)] complexes are shown in Figure S26 (Supporting Information). Fitting the measured data for the [Mn(3,9-OPC2A)] by the monoexponential function gives the rate constant kobs = (1.74 ± 0.04) × 10^−5 s^−1.
The inertness of the [Mn(3,9-OPC2A)] complex was studied by various methods. The transmetalation reaction initiated by the Zn(II) ions was monitored by measuring the T2 relaxation times as a function of time at pH = 6.0, set by a 50 mM 2-(N-morpholino)ethanesulfonic acid (MES) buffer in the presence of 25 equivalents of Zn(II) ions at 37 °C. These conditions were recently used by P. Caravan et al., and employed in the present study to obtain data that can be directly compared with that of [Mn(PyC3A)]^– [6].

[3] = pH = 6.0, 25 equivalents of Zn(II), 37 °C

Row | r1p ([1]; 0.49 T, 25 °C) | r2p ([1]; 0.49 T, 25 °C) | r1p ([1]; 0.49 T, 37 °C) | r2p ([1]; 0.49 T, 37 °C) | r1p ([1]; 1.41 T, 25 °C) | r2p ([1]; 1.41 T, 25 °C) | r1p ([1]; 1.41 T, 37 °C) | r2p ([1]; 1.41 T, 37 °C) | r1p in pure aqueous solution ([1]; 1.41 T, 25 °C) [mM⁻¹ s⁻¹] | r1p near pH = 1.8 ([1]; 1.41 T, 25 °C, complex protonated and dissociated at low pH) [mM^−1s^−1] | half-life of dissociation at pH = 7.4 ([2]; pH = 7.4, large Zn(II) excess, from the rate constant) [h] | Compound | kobs ([2]; pH = 6.0 (50 mM MES), 25 equivalents of Zn(II), 37 °C) | kobs lower than that of [Mn(PyC3A)] [2, 3] [times] | kobs smaller than that of [Mn(3,9-PC2A)] [2, 3]
1 | 3.13(2) mM^−1s^−1 | 5.15(3) mM^−1s^−1 | 2.54(1) mM^−1s^−1 | 4.17(4) mM^−1s^−1 | 2.72(2) mM^−1s^−1 | 9.90(5) mM^−1s^−1 | 2.06(1) mM^−1s^−1 | 7.37(3) mM^−1s^−1 |  |  |  | O=C(O)CN1CCOCCN(CC(=O)O)Cc2cccc(n2)C1 [H23,9-OPC2A, 6-Oxa-3,9,15-triazabicyclo(9.3.1)pentadeca-1(15),11,13-triene-3,9-diacetic acid] |  |  | 
2 |  |  |  |  |  |  |  |  | 2.70 | 6.51 | 40.0 | O=C([O-])CN1CCOCCN(CC(=O)[O-])Cc2cccc(n2)C1.[Mn+2] [[Mn(3,9-OPC2A)]] | (1.74 ± 0.04) × 10^−5 s^−1 | ~40 | circa 20 times
